In patent publication US12391737B2, “Soluble NPY2 receptor agonists” (Boehringer Ingelheim International GmbH, priority 2020, dated 2025):

Tests used:
[1] = Solubility determination; settings: for Sol6: pH 6; for Sol7: pH 7
Summary of the method: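 First, TFA-salt peptide was added to 0.1 M sodium diphosphate (pH 6.4 or 7.0) to 10 mg/ml and shaken 2 h at room temperature. Next, insoluble material was filtered off. Finally, filtrate and control, each 1 mg/ml in 50% acetonitrile, were compared by reversed-phase chromatography.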

[2] = biological target: T1, Human Neuropeptide Y2 Receptor (Homo sapiens, UniProt P49146); assay: Radioligand binding competition assay (RLB); settings: Table 3, 125I-PYY(1-36) competition; read-out: Ki
T1 construct: purchased CHEMICON HTS066M
T1 sequence (P49146 1-381): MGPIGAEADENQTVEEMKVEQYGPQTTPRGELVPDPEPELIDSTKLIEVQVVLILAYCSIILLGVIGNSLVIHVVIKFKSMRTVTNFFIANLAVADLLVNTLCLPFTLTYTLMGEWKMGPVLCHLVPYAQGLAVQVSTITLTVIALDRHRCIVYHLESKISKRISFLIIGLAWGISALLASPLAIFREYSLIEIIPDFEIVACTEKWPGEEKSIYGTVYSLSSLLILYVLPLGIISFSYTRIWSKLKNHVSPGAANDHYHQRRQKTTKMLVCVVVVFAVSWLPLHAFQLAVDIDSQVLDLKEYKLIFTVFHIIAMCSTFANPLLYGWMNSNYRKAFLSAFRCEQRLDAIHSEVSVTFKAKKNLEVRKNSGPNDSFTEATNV
Summary of the method: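 Receptor membranes, 0.5 μg/well; buffer 50 mM HEPES/5 mM MgCl2/1 mM CaCl2/0.2% ovalbumin, pH 7.4; 2 h RT, shaking. GF/C filtration, cold HEPES/500 mM NaCl wash, scintillation count. IC50 by nonlinear regression.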

Sol6 [1] [mg/mL] | Sol7 [1] [mg/mL] | Ki [2] [nM] | SMILES
>10.0 | 10.0 | 2.41 | CC(C)CC(=O)N[C@@H](C)C(=O)N1CCC[C@H]1C(=O)N[C@@H](C)C(=O)N[C@@H](CCCCNC(=O)CCCCCNC(=O)CC[C@H](NC(=O)CCCCCCCCCCCCCCCCC(=O)O)C(=O)O)C(=O)N1CCC[C@H]1C(=O)N[C@@H](CCC(=O)O)C(=O)N[C@@H](CCC(=O)O)C(=O)N[C@@H](CC(=O)O)C(=O)N[C@@H](C)C(=O)N[C@@H](CO)C(=O)N1CCC[C@H]1C(=O)N[C@@H](CCC(=O)O)C(=O)N[C@@H](CCC(=O)O)C(=O)N[C@@H](CC(C)C)C(=O)N[C@@H](CCC(N)=O)C(=O)N[C@@H](CCCNC(=N)N)C(=O)N[C@@H](Cc1ccc(O)cc1)C(=O)N[C@@H](CCC(N)=O)C(=O)N[C@H](C(=O)N[C@@H](CO)C(=O)N[C@@H](CC(C)C)C(=O)N[C@@H](CCCNC(=N)N)C(=O)N[C@@H](Cc1c[nH]cn1)C(=O)N[C@@H](Cc1ccc(O)cc1)C(=O)N[C@@H](Cc1ccc(O)cc1)C(=O)N[C@@H](CC(N)=O)C(=O)N[C@@H](Cc1c[nH]c2ccccc12)C(=O)N[C@@H](CC(C)C)C(=O)N[C@H](C(=O)N[C@@H](CCCNC(=N)N)C(=O)N[C@@H](CCC(N)=O)C(=O)N[C@@H](CCCNC(=N)N)C(=O)N[C@@H](Cc1ccc(O)cc1)C(N)=O)[C@@H](C)O)C(C)C [Compound 20, N{alpha-4}-(3-methylbutanoyl)-N{epsilon-7}-(6-[(4S)-4-carboxy-4-(17-carboxyheptadecanamido)butanamido]hexanoyl)[4A,6A,7K,9E,18Q,21Q,22V,28Y,30W,31L]-hPYY(4-36)]
8.7 | 8.9 | 16.3 | CC(C)CC(=O)N[C@@H](C)C(=O)N1CCC[C@H]1C(=O)N[C@@H](CCC(=O)O)C(=O)N[C@@H](CCCCNC(=O)CCCCCNC(=O)CC[C@H](NC(=O)CCCCCCCCCCCCCCCCC(=O)O)C(=O)O)C(=O)N1CCC[C@H]1C(=O)N[C@@H](CCC(=O)O)C(=O)N[C@@H](CCC(=O)O)C(=O)N[C@@H](CC(=O)O)C(=O)N[C@@H](C)C(=O)N[C@H](C(=O)N1CCC[C@H]1C(=O)N[C@@H](CCC(=O)O)C(=O)N[C@@H](CCC(=O)O)C(=O)N[C@@H](CC(C)C)C(=O)N[C@@H](CCC(N)=O)C(=O)N[C@@H](CCCNC(=N)N)C(=O)N[C@@H](CCC(N)=O)C(=O)N[C@@H](Cc1ccc(O)cc1)C(=O)N[C@H](C(=O)N[C@@H](CO)C(=O)N[C@@H](CC(C)C)C(=O)N[C@@H](CCCNC(=N)N)C(=O)N[C@@H](Cc1c[nH]cn1)C(=O)N[C@@H](Cc1ccc(O)cc1)C(=O)N[C@@H](Cc1ccc(O)cc1)C(=O)N[C@@H](CC(N)=O)C(=O)N[C@@H](Cc1c[nH]c2ccccc12)C(=O)N[C@@H](CC(C)C)C(=O)N[C@H](C(=O)N[C@@H](CCCNC(=N)N)C(=O)N[C@@H](CCC(N)=O)C(=O)N[C@@H](CCCNC(=N)N)C(=O)N[C@@H](Cc1ccc(O)cc1)C(N)=O)[C@@H](C)O)C(C)C)[C@@H](C)O [Compound 88, N{alpha-4}-(3-methylbutanoyl)-N{epsilon-7}-(6-[(4S)-4-carboxy-4-(17-carboxyheptadecanamido)butanamido]hexanoyl)-[4A,7K,9E,13T,18Q,20Q,22V,28Y,30W,31L]-hPYY(4-36)]

Further lines, the compound ahead of its results:

SMILES | Sol6 [1] [mg/mL] | Sol7 [1] [mg/mL] | Ki [2] [nM]
CC(C)CC(=O)N[C@@H](C)C(=O)N1CCC[C@H]1C(=O)N[C@@H](CCC(=O)O)C(=O)N[C@@H](CCCCNC(=O)CCCCCNC(=O)CC[C@H](NC(=O)CCCCCCCCCCCCCCCCC(=O)O)C(=O)O)C(=O)N1CCC[C@H]1C(=O)N[C@@H](CCC(=O)O)C(=O)N[C@@H](C)C(=O)N[C@@H](CC(=O)O)C(=O)N[C@@H](C)C(=O)N[C@@H](CO)C(=O)N1CCC[C@H]1C(=O)N[C@@H](CCC(=O)O)C(=O)N[C@@H](CCC(=O)O)C(=O)N[C@@H](CC(C)C)C(=O)N[C@@H](CCC(N)=O)C(=O)N[C@@H](CCCNC(=N)N)C(=O)N[C@@H](Cc1ccc(O)cc1)C(=O)N[C@@H](Cc1ccc(O)cc1)C(=O)N[C@H](C(=O)N[C@@H](CCC(N)=O)C(=O)N[C@@H](CC(C)C)C(=O)N[C@@H](CCCNC(=N)N)C(=O)N[C@@H](Cc1c[nH]cn1)C(=O)N[C@@H](Cc1ccc(O)cc1)C(=O)N[C@@H](Cc1ccc(O)cc1)C(=O)N[C@@H](CC(N)=O)C(=O)N[C@@H](Cc1c[nH]c2ccccc12)C(=O)N[C@@H](CC(C)C)C(=O)N[C@H](C(=O)N[C@@H](CCCNC(=N)N)C(=O)N[C@@H](CCC(N)=O)C(=O)N[C@@H](CCCNC(=N)N)C(=O)N[C@@H](Cc1ccc(O)cc1)C(N)=O)[C@@H](C)O)C(C)C [Compound 121, N{alpha-4}-(3-methylbutanoyl)-N{epsilon-7}-(6-[(4S)-4-carboxy-4-(17-carboxyheptadecanamido)butanamido]hexanoyl)-[4A,7K,9E,10A,18Q,22V,23Q,28Y,30W,31L]-hPYY(4-36)] | 9.1 | 8.9 | 1.45
CC(C)CC(=O)N[C@@H](C)C(=O)N1CCC[C@H]1C(=O)N[C@@H](CCC(=O)O)C(=O)N[C@@H](CCCCNC(=O)CCCCCNC(=O)CC[C@H](NC(=O)CCCCCCCCCCCCCCCCC(=O)O)C(=O)O)C(=O)N1CCC[C@H]1C(=O)N[C@@H](CCC(=O)O)C(=O)N[C@@H](CCC(=O)O)C(=O)N[C@@H](CC(=O)O)C(=O)N[C@@H](C)C(=O)N[C@H](C(=O)N1CCC[C@H]1C(=O)N[C@@H](CCC(=O)O)C(=O)N[C@@H](CCC(=O)O)C(=O)N[C@@H](CC(C)C)C(=O)N[C@@H](CCC(N)=O)C(=O)N[C@@H](CCCNC(=N)N)C(=O)N[C@@H](Cc1ccc(O)cc1)C(=O)N[C@@H](Cc1ccc(O)cc1)C(=O)N[C@H](C(=O)NCC(=O)N[C@@H](CC(C)C)C(=O)N[C@@H](CCCNC(=N)N)C(=O)N[C@@H](Cc1c[nH]cn1)C(=O)N[C@@H](Cc1ccc(O)cc1)C(=O)N[C@@H](Cc1ccc(O)cc1)C(=O)N[C@@H](CC(N)=O)C(=O)N[C@@H](Cc1c[nH]c2ccccc12)C(=O)N[C@@H](CC(C)C)C(=O)N[C@H](C(=O)N[C@@H](CCCNC(=N)N)C(=O)N[C@@H](CCC(N)=O)C(=O)N[C@@H](CCCNC(=N)N)C(=O)N[C@@H](Cc1ccc(O)cc1)C(N)=O)[C@@H](C)O)C(C)C)[C@@H](C)O [Compound 44, N{alpha-4}-(3-methylbutanoyl)-N{epsilon-7}-(6-[(4S)-4-carboxy-4-(17-carboxyheptadecanamido)butanamido]hexanoyl)[4A,7K,9E,13T,18Q,22V,23G,28Y,30W,31L]-hPYY(4-36)] | 9.7 | 10.0 | 5.86
CC(C)CC(=O)N[C@@H](C)C(=O)N1CCC[C@H]1C(=O)N[C@@H](CCC(=O)O)C(=O)N[C@@H](CCCCNC(=O)CCCCCNC(=O)CC[C@H](NC(=O)CCCCCCCCCCCCCCCCC(=O)O)C(=O)O)C(=O)N1CCC[C@H]1C(=O)N[C@@H](CCC(=O)O)C(=O)N[C@@H](CCC(=O)O)C(=O)N[C@@H](CC(=O)O)C(=O)N[C@@H](CO)C(=O)N[C@H](C(=O)N1CCC[C@H]1C(=O)N[C@@H](CCC(=O)O)C(=O)N[C@@H](CCC(=O)O)C(=O)N[C@@H](CC(C)C)C(=O)N[C@@H](CCC(N)=O)C(=O)N[C@@H](CCCNC(=N)N)C(=O)N[C@@H](Cc1ccc(O)cc1)C(=O)N[C@@H](Cc1ccc(O)cc1)C(=O)N[C@H](C(=O)N[C@@H](CO)C(=O)N[C@@H](CC(C)C)C(=O)N[C@@H](CCCNC(=N)N)C(=O)N[C@@H](Cc1c[nH]cn1)C(=O)N[C@@H](Cc1ccc(O)cc1)C(=O)N[C@@H](Cc1ccc(O)cc1)C(=O)N[C@@H](CC(N)=O)C(=O)N[C@@H](Cc1c[nH]c2ccccc12)C(=O)N[C@@H](CC(C)C)C(=O)N[C@H](C(=O)N[C@@H](CCCNC(=N)N)C(=O)N[C@@H](CCC(N)=O)C(=O)N[C@@H](CCCNC(=N)N)C(=O)N[C@@H](Cc1ccc(O)cc1)C(N)=O)[C@@H](C)O)C(C)C)[C@@H](C)O [Compound 143, N{alpha-4}-(3-methylbutanoyl)-N{epsilon-7}-(6-[(4S)-4-carboxy-4-(17-carboxyheptadecanamido)butanamido]hexanoyl)-[4A,7K,9E,12S,13T,18Q,22V,28Y,30W,31L]-hPYY(4-36)] | 10.0 | >10.0 | 3.42
CC(C)CC(=O)N[C@@H](C)C(=O)N1CCC[C@H]1C(=O)N[C@@H](CCC(=O)O)C(=O)N[C@@H](CCCCNC(=O)CCCCCNC(=O)CC[C@H](NC(=O)CCCCCCCCCCCCCCCCC(=O)O)C(=O)O)C(=O)N1CCC[C@H]1C(=O)N[C@@H](CCC(=O)O)C(=O)N[C@@H](CCC(=O)O)C(=O)N[C@@H](CC(=O)O)C(=O)N[C@@H](C)C(=O)N[C@H](C(=O)N1CCC[C@H]1C(=O)N[C@@H](CCC(=O)O)C(=O)N[C@@H](CCC(=O)O)C(=O)N[C@@H](CC(C)C)C(=O)N[C@@H](CCC(N)=O)C(=O)N[C@@H](CCCNC(=N)N)C(=O)N[C@@H](Cc1ccc(O)cc1)C(=O)N[C@@H](Cc1ccc(O)cc1)C(=O)N[C@H](C(=O)N[C@@H](CO)C(=O)N[C@@H](CC(C)C)C(=O)N[C@@H](CCCNC(=N)N)C(=O)N[C@@H](Cc1c[nH]cn1)C(=O)N[C@@H](Cc1ccc(O)cc1)C(=O)N[C@@H](Cc1ccc(O)cc1)C(=O)N[C@@H](CC(N)=O)C(=O)N[C@@H](Cc1c[nH]c2ccccc12)C(=O)N[C@@H](CC(C)C)C(=O)N[C@@H](CO)C(=O)N[C@@H](CCCNC(=N)N)C(=O)N[C@@H](CCC(N)=O)C(=O)N[C@@H](CCCNC(=N)N)C(=O)N[C@@H](Cc1ccc(O)cc1)C(N)=O)C(C)C)[C@@H](C)O [Compound 155, N{alpha-4}-(3-methylbutanoyl)-N{epsilon-7}-(6-[(4S)-4-carboxy-4-(17-carboxyheptadecanamido)butanamido]hexanoyl)-[4A,7K,9E,13T,18Q,22V,28Y,30W,31L,32S]-hPYY(4-36)] | >10.0 | >10.0 | 7.6
